ChEMBL document CHEMBL5576043, “Synthesis, radiosynthesis and biochemical evaluation of fluorinated analogues of sphingosine-1-phosphate receptor 3 specific antagonists using PET” (Bioorg Med Chem, 2024)

Columns and labels:
[1] = 1-Octanol/PBS partition coefficient, logD of the compound at pH 7.4 incubated for 3 mins; assay type: physicochemical
[2] = Retention time of compound by radio-HPLC analysis; assay type: physicochemical
[3] = Drug metabolism in formulated solution assessed as 4-[18F]fluoroaniline metabolite formation by measuring retention time after 180 mins by radio-HPLC analysis; assay type: ADME; settings: 3 h
[4] = Drug metabolism in formulated solution assessed as decomposition mediated metabolite formation by measuring retention time after 180 mins by radio-HPLC analysis; assay type: ADME; settings: 3 h
[5] = Drug metabolism in mouse serum assessed as decomposition mediated metabolite formation at 37 degreeC measured after 10 to 90 mins by radio-HPLC analysis; assay type: ADME, cell-free; settings: time 10-90 min
[6] = Stability in mouse serum measured after 90 mins by radio-HPLC analysis; assay type: ADME, cell-free; settings: 1.5 h
[7] = Drug metabolism in human serum assessed as decomposition mediated metabolite formation measured after 90 mins by radio-HPLC analysis; assay type: ADME, cell-free; settings: 1.5 h
[8] = Drug accumulation in C57/BL6 mouse liver at 5 MBq, iv administered as bolus injection and measured upto 15 mins by imaging analysis; assay type: ADME, organism-based; settings: in vivo, 0.25 h
[9] = Drug uptake in C57/BL6 mouse intestine at 5 MBq, iv administered as bolus injection and measured at 15 to 90 mins by imaging analysis; assay type: ADME, organism-based; settings: in vivo, time 15-90 min
[10] = Drug uptake in C57/BL6 mouse kidney at 5 MBq, iv administered as bolus injection and measured for 90 mins by imaging analysis; assay type: ADME, organism-based; settings: in vivo, 1.5 h
[11] = Drug uptake in C57/BL6 mouse urinary bladder at 5 MBq, iv administered as bolus injection and measured for 90 mins by imaging analysis; assay type: ADME, organism-based; settings: in vivo, 1.5 h
[12] = Drug accumulation in C57/BL6 mouse heart at 5 MBq, iv administered as bolus injection and measured at 6 to 15 mins by imaging analysis; assay type: ADME, organism-based; settings: in vivo, time 6-15 min
[13] = Drug accumulation in C57/BL6 mouse spleen at 5 MBq, iv administered as bolus injection and measured at 6 to 15 mins by imaging analysis; assay type: ADME, organism-based; settings: in vivo, time 6-15 min
[14] = Drug accumulation in C57/BL6 mouse heart at 5 MBq, iv administered as bolus injection and measured at 15 to 90 mins by imaging analysis; assay type: ADME, organism-based; settings: in vivo, time 15-90 min
[15] = Drug accumulation in C57/BL6 mouse spleen at 5 MBq, iv administered as bolus injection and measured at 15 to 90 mins by imaging analysis; assay type: ADME, organism-based; settings: in vivo, time 15-90 min
[16] = Drug accumulation in C57/BL6 mouse lungs at 5 MBq, iv administered as bolus injection and measured at 0 to 5 mins by imaging analysis; assay type: ADME, organism-based, Lung; settings: in vivo, time 0-5 min
[17] = Drug uptake in C57/BL6 mouse blood at 5 MBq, iv administered as bolus injection and measured after 90 mins by PET imaging analysis; assay type: ADME, organism-based; settings: in vivo, 1.5 h
[18] = Drug uptake in C57/BL6 mouse blood at 5 MBq, iv administered as bolus injection and measured at 12 sec by PET imaging analysis; assay type: ADME, organism-based; settings: in vivo, 12 s
[19] = Drug uptake in C57/BL6 mouse liver at 5 MBq, iv administered as bolus injection and measured at ~5 min by PET imaging analysis; assay type: ADME, organism-based; settings: in vivo
[20] = Drug uptake in C57/BL6 mouse liver at 5 MBq, iv administered as bolus injection and measured at 90 min by PET imaging analysis; assay type: ADME, organism-based; settings: in vivo, 1.5 h
[21] = Drug uptake in C57/BL6 mouse kidney at 5 MBq, iv administered as bolus injection and measured at 1.2 min by PET imaging analysis; assay type: ADME, organism-based; settings: in vivo, 0.02 h
[22] = Drug uptake in C57/BL6 mouse kidney at 5 MBq, iv administered as bolus injection and measured at 90 min by PET imaging analysis; assay type: ADME, organism-based; settings: in vivo, 1.5 h
[23] = Drug uptake in C57/BL6 mouse blood at 5 MBq, iv administered as bolus injection and measured within 24 sec by PET imaging analysis; assay type: ADME, organism-based; settings: in vivo, 24 s
[24] = Drug uptake in C57/BL6 mouse lung at 5 MBq, iv administered as bolus injection and measured at 12 sec by PET imaging analysis; assay type: ADME, organism-based; settings: in vivo, 12 s
[25] = Drug uptake in C57/BL6 mouse lung at 5 MBq, iv administered as bolus injection and measured within 4.5 min by PET imaging analysis; assay type: ADME, organism-based; settings: in vivo, 0.075 h
[26] = Drug uptake in C57/BL6 mouse spleen at 5 MBq, iv administered as bolus injection and measured within 4.5 min by PET imaging analysis; assay type: ADME, organism-based; settings: in vivo, 0.075 h
[27] = Drug uptake in C57/BL6 mouse spleen at 5 MBq, iv administered as bolus injection and measured after 90 min by PET imaging analysis; assay type: ADME, organism-based; settings: in vivo, 1.5 h
[28] = Drug uptake in C57/BL6 mouse heart at 5 MBq, iv administered as bolus injection and measured at 24 sec by PET imaging analysis; assay type: ADME, organism-based; settings: in vivo, 24 s
[29] = Drug uptake in C57/BL6 mouse heart at 5 MBq, iv administered as bolus injection and measured at 4.2 min by PET imaging analysis; assay type: ADME, organism-based; settings: in vivo, 0.07 h
[30] = Drug uptake in C57/BL6 mouse heart at 5 MBq, iv administered as bolus injection and measured at 14.2 min by PET imaging analysis; assay type: ADME, organism-based; settings: in vivo, 0.2367 h
[31] = Drug uptake in C57/BL6 mouse heart at 5 MBq, iv administered as bolus injection and measured at 90 min by PET imaging analysis; assay type: ADME, organism-based; settings: in vivo, 1.5 h
[32] = Drug uptake in C57/BL6 mouse lymph node at 5 MBq, iv administered as bolus injection and measured at 60 min by PET imaging analysis; assay type: ADME, organism-based; settings: in vivo, 1 h
[33] = Drug uptake in C57/BL6 mouse muscle tissue at 5 MBq, iv administered as bolus injection and measured at 60 min by PET imaging analysis; assay type: ADME, organism-based; settings: in vivo, 1 h
[34] = Drug uptake in C57/BL6 mouse brain at 5 MBq, iv administered as bolus injection and measured at 90 min by PET imaging analysis; assay type: ADME, organism-based; settings: in vivo, 1.5 h

Compound: CC(C)(C)C(=O)/C(=N\Nc1ccc(Cl)cc1)Nc1ccc([18F])cc1
- logD at 0.05 h [1]: 1.55
- Retention_time [2]: 15.9 min
- Retention_time [3]: 4.5 min
- Retention_time [4]: 16.9 min
- Drug metabolism [5]: Metabolite_Detected
- Stability [6]: Stable
- Drug metabolism [7]: ~ 7%
- Drug uptake [8]: Active
- Drug uptake [9]: Active
- Drug uptake [10]: Not Active
- Drug uptake [11]: Not Active
- Drug uptake [12]: Active
- Drug uptake [13]: Active
- Drug uptake [14]: Not Active
- Drug uptake [15]: Not Active
- Drug uptake [16]: Active
- Drug uptake [17]: Not Active
- Drug uptake [18]: 37.5 %ID/cm3
- Drug uptake [19]: 41 %ID/cm3
- Drug uptake [20]: 10 %ID/cm3
- Drug uptake [21]: 8 %ID/cm3
- Drug uptake [22]: 4 %ID/cm3
- Drug uptake [23]: Not Active
- Drug uptake [24]: 13 %ID/cm3
- Drug uptake [25]: Not Active
- Drug uptake [26]: 11 %ID/cm3
- Drug uptake [27]: 3 %ID/cm3
- Drug uptake [28]: 7 %ID/cm3
- Drug uptake [29]: 5 %ID/cm3
- Drug uptake [30]: 6 %ID/cm3
- Drug uptake [31]: 3 %ID/cm3
- Drug uptake [32]: 2.1 %ID/cm3
- Drug uptake [33]: 1.9 %ID/cm3
- Drug uptake [34]: 3.9 %ID/cm3
